In US20110195845A1, “Constructs for Expressing Herbicide Tolerance Genes, Related Plants, and Related Trait Combinations” (Dow AgroSciences LLC, priority 2008, published 2011):

What was measured:
[1] = test system: NT-1 tobacco suspension cells treated with DSM-2 (v2) (pDAB3778); experiment: NT-1 tobacco cell transformation, selection on bialaphos or glufosinate ammonium; type: cell-based
Description: Four days prior to transformation, a 1 week old NT-1 tobacco suspension, which was being subcultured every 7 days, was subcultured to fresh medium by adding 2 ml of the NT-1 culture or 1 ml of packed cells into 40 ml NT-1 B media. The subcultured suspension was maintained in the dark at 25±1° C. on a shaker at 125 rpm.
A 50% glycerol stock of Agrobacterium tumefaciens [strain LBA4404] harboring a binary vector of interest was used to initiate a liquid overnight culture by adding 20, 100, or 500 μl to 30 ml YEP liquid (10 g/L yeast extract, 10 g/L Peptone, 5 g/L NaCl, 0-10 g/L Sucrose) containing 50-100 mg/L spectinomycin. The bacterial culture was incubated in the dark at 28° C. in an incubator shaker at 150-250 rpm until the OD600 was 1.5+0.2. This took approximately 18-20 hrs.
For each vector tested, 20-70 mL of 4-day old suspension cells were transferred into a sterile vessel, to which 500-1750 μl of Agrobacterium suspension at the proper OD was added. To ensure a uniform mixture was achieved, the cells were pipetted up and down 5 times with a 10 ml wide-bore pipet. The uniform suspension was then drawn up into a 25 ml barrel of a repeat pipetter and 250 μl of the suspension was dispensed per well into 24-well plates, continuing until the suspension was exhausted. The well plates were wrapped in parafilm and cultured in the dark at 25±1° C. without shaking for a 3 day co-cultivation.
Following the co-cultivation, all excess liquid was removed from the individual wells with a 1 mL pipet tip, and remaining cells were resuspended in 1 ml NTC liquid (NT-1 B medium containing 500 mg/L carbenicillin, added after autoclaving). The contents of an individual well were dispersed across the entire surface of 100×25 mm selection plates using disposable transfer pipets. Selection media consisted of NTC media solidified with 8 g/l TC agar supplemented with 7.5 to 15 mg/L bialaphos or technical grade glufosinate ammonium, added after autoclaving. All selection plates, left unwrapped, were maintained in the dark at 28° C.
Putative transformants appeared as small clusters of callus on a background of dead, non-transformed cells. Calli were isolated approximately 2-6 weeks post-transformation. Each callus isolate was transferred to its own 60×20 mm plate containing the same selection medium and allowed to grow for approximately 2 weeks before being submitted for analysis.

[2] = test system: Escherichia coli BL21-Star (DE3) with AtUbi10 promoter//DSM-2 (v2) (3778); experiment: Plant promoter driven complementation on glufosinate, plasmid 3778; type: cell-based; parameters: bacterial growth on minimal media: key: ++++ = Heavy Lawn Growth; +++ = Lawn Growth; ++ = Lots of Distinct Colonies; + = Scattered Colony Growth; conditions: for bacterial growth on minimal media: 48 hrs @37 C
Description: Plasmid constructs in which the DSM-2 (v2) and PAT gene coding sequences were expressed, under either the viral promoters CsVMV or the plant promoter AtUbi10, were assayed for complementation on minimal media containing glufosinate. The plasmids 3778 (Rb7 MARv3//AtUbi10 promoter//DSM-2 (v2)//Atu Orf 1 3′UTR), 3779 (Rb7 MARv3//AtUbi10 promoter//PAT//Atu Orf 1 3′UTR), 3264 (CsVMV promoter//DSM-2//Atu Orf 24 3′UTR), 3037 (CsVMV promoter//PAT//Atu Orf 25/26 3′UTR), and 770 (control plasmid containing CsVMV promoter//GUS v3//Atu Orf 24 3′UTR) were transformed into Escherichia coli BL21-Star (DE3) and grown up in complex media. Five microliters of the cultures were plated on minimal media containing increasing concentrations of Glufosinate and incubated at 37° C. for 48 hours.

[3] = test system: E. coli Top10; experiment: Bacterial strain response to glufosinate on minimal media; type: cell-based, Escherichia coli; parameters: key: +++ = Heavy Lawn Growth; ++ = Light lawn growth; + = patchy lawn growth; −− = No Growth; conditions: 24 hrs @ 37 C
Description: (§1) Selected cell lines of Escherichia coli and Agrobacterium tumefaciens were inoculated on minimal media containing incrementally increasing concentrations of Glufosinate (BASTA). The cell lines; BL21-Star (DE3), Top10, DH5α, Agrobacterium tumefaciens C58, and Agrobacterium tumefaciens LBA4404s were initially grown up on complex media. The Escherichia coli strains were grown in LB and the Agrobacterium tumefaciens strains were grown in YEP. Five microliters of bacterial culture was inoculated and dispersed evenly onto minimal media plates containing various concentrations of glufosinate. The concentrations consisted of 0 μg/ml, 250 μg/ml, 500 μg/ml, 1000 μg/ml, 2000 μg/ml, and 4000 μg/ml of BASTA. In addition, the bacterial strains were inoculated onto a plate of complex media as a control—Agrobacterium tumefaciens strains were inoculated on YEP agar plates, and Escherichia coli strains were inoculated on LB agar plates. The plates containing the Escherichia coli strains were incubated at 37° C. for 24 hours. The plates containing the Agrobacterium tumefaciens strains were incubate at 25° C. for 48 hours. […] Table 7 illustrates the capability of the various strains to grow on minimal media containing glufosinate.

[4] = test system: E. coli DH5α; experiment: as above; type: cell-based, Escherichia coli; parameters: key: +++ = Heavy Lawn Growth; ++ = Light lawn growth; + = patchy lawn growth; −− = No Growth; conditions: 24 hrs @ 37 C
Description: as §1

CP(=O)(O)CCC(N)C(=O)O (centres unmarked) [glufosinate]
Transformation frequency (% of selection plates producing at least one callus) after coding region PCR ([1]; 7.5 mg/L selection agent): 55.6% | Transformation frequency (% of selection plates producing at least one callus) after coding region PCR ([1]; 10 mg/L selection agent): 50.0% | Transformation frequency (% of selection plates producing at least one callus) after coding region PCR ([1]; 12.5 mg/L selection agent): 44.4% | Transformation frequency (% of selection plates producing at least one callus) after coding region PCR ([1]; 15 mg/L selection agent): 38.9% | bacterial growth on minimal media ([2]; 250 μg/ml BASTA): ++++ | bacterial growth on minimal media ([2]; 500 μg/ml BASTA): +++ | bacterial growth on minimal media ([2]; 1000 μg/ml BASTA): +++ | bacterial growth on minimal media ([2]; 2000 μg/ml BASTA): ++ | bacterial growth on minimal media ([2]; 4000 μg/ml BASTA): ++ | concentration in minimal media to which promoter-driven DSM-2 provided resistance ([2]; At Ubi10 promoter, minimal media): 200 µg/mL | bacterial growth on minimal media ([3]; 250 μg/ml BASTA): +++ | bacterial growth on minimal media ([3]; 500 μg/ml BASTA): +++ | bacterial growth on minimal media ([3]; 1000 μg/ml BASTA): +++ | bacterial growth on minimal media ([3]; 2000 μg/ml BASTA): + | bacterial growth on minimal media ([3]; 4000 μg/ml BASTA): −− | bacterial growth on minimal media ([4]; 250 μg/ml BASTA): +++ | bacterial growth on minimal media ([4]; 500 μg/ml BASTA): +++ | bacterial growth on minimal media ([4]; 1000 μg/ml BASTA): +++ | bacterial growth on minimal media ([4]; 2000 μg/ml BASTA): +++ | bacterial growth on minimal media ([4]; 4000 μg/ml BASTA): −−
